The text below walks through data of patent publication US10238638B2, “Benzothiazole and benzothiophene compounds” (Bristol-Myers Squibb Company, priority 2015, dated 2019).

The term pIC50 denotes the negative decadic logarithm of the IC50, by convention in mol/L.

pIC50: −log10 of the molar value.

Sequence of PAR1 (P25116 22-425): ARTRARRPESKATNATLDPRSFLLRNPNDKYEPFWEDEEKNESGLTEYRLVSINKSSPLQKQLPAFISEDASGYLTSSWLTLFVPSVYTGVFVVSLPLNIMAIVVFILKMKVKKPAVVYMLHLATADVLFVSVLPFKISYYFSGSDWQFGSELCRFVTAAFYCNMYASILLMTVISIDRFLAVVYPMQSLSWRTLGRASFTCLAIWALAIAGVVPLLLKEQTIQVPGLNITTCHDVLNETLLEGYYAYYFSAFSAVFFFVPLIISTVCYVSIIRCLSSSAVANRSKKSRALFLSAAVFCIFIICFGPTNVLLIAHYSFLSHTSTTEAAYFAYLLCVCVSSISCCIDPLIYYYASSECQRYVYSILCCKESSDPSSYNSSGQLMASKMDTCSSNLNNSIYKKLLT

One series addresses PAR1 (Homo sapiens (Human), UniProt P25116).
Test: not given
The settings on record: ACS patients, phase III; cited from earlier work.
As to `CCOC(=O)N[C@@H]1CC[C@@H]2[C@@H](C1)C[C@H]1C(=O)O[C@H](C)[C@H]1[C@H]2/C=C/c1ccc(-c2cccc(F)c2)cn1` [vorapaxar], the cardiovascular events entry is listed as “did not significantly reduce” and the “risk of major bleeding” value is on record as “significantly increased”.

For the next series, the target named is PAR4 (Homo sapiens (Human), UniProt Q96RI0). Briefly: FLIPR assay in PAR4-expressing HEK293 cells (calcium mobilization). It is filed as cell-based. The settings on record: H-Ala-Phe(4-F)-Pro-Gly-Trp-Leu-Val-Lys-Asn-Gly-NH2-induced calcium mobilization, PAR4 antagonist activity. An excerpt: The FLIPR assay is an exemplary in vitro assay for measuring the activity of the PAR4 antagonists of the present invention. In this assay, intracellular calcium mobilization is induced in PAR4 expressing cells by a PAR4 agonist and calcium mobilization is monitored.
Sequence of PAR4 (Q96RI0 18-385): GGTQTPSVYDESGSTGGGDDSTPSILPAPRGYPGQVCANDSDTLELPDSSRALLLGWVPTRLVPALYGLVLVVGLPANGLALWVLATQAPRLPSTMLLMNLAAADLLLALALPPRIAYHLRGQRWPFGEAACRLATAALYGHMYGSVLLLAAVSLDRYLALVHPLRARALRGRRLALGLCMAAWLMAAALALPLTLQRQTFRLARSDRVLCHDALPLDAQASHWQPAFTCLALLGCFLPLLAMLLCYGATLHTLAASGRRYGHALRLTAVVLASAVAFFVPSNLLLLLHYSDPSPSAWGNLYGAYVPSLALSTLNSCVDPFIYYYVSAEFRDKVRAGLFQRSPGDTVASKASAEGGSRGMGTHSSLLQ
HEK293 cells stably expressing PAR4 were generated by a standard method of transfection of human PAR4 (F2R23) cDNA expression vector and selected based on PAR4 protein expression or mRNA expression. […] Therefore, the same cells were also used to determine selectivity against PAR1 and agonist activity for both receptors.
FLIPR-based calcium mobilization assay in HEK293 cells was used to measure PAR4 antagonism, agonism, and selectivity against PAR1. […] Counter screens for agonist activity and PAR1 antagonist activity were also performed. Briefly, PAR1/PAR4-expressing HEK293 cells were grown in DMEM (Life Technology, Grand Island, N.Y.) containing 10% heat-inactivated FBS, 1% Penicillin-Streptomycin, 10 μg/mL blasticidin, and 100 μg/mL Zeocin at 37° C. with 5% CO2. Cells were plated overnight prior to the experiment in a black 384-well Purecoat Amine clear bottom plate (Becton Dickinson Biosciences, San Jose, Calif.) at 10,000 cells/well in 30 μL growth medium and incubated in a humidified chamber at 37° C. with 5% CO2 overnight. Prior to compound addition, the cell medium was replaced with 40 μL of 1× calcium and magnesium-containing Hank's Balanced Saline Solution (HBSS) (with 20 mM HEPES) and 1:1000 diluted fluorescent calcium indicator (Codex Biosolutions, Gaithersburg, Md.). After a 30 minute incubation period at 37° C. and a further 30 minute incubation and equilibration period at room temperature, 20 μL test compound (diluted in 1×HBSS buffer) was added at various concentrations at 0.17% dimethyl sulfoxide (DMSO) final concentration. Changes in fluorescence intensity were measured using a Functional Drug Screening System (FDSS, Hamamatsu, Japan) to determine agonist activities. The cells were then incubated for 30 minutes at room temperature followed by addition of 20 μL of agonist peptide for antagonist activity measurement. […] Compound potency was derived from 11-point concentration-response curves.
A general note: Calcium flux is commonly read through the fluorescence of an indicator in the cells.
`COc1cc(OCc2csc(-c3ccc(C(=O)N(C)CC#N)cc3)n2)c2sc(-c3cn4nc(C(C)(F)F)sc4n3)nc2c1` [Example 17, N—(Cyanomethyl)-4-(4-(((2-(2-(1,1-difluoroethyl)imidazo[2,1-b][1,3,4]thiadiazol-6-yl)-5-methoxybenzo[d]thiazol-7-yl)oxy)methyl)thiazol-2-yl)-N-methylbenzamide]: the pIC50 was 5.59.

Consider `CCc1nn2cc(-c3nc4cc(OC)cc(OCc5csc(-c6ccc(C(=O)N(C)C)cc6)n5)c4s3)nc2s1` [Example 35, 4-(4-(((2-(2-Ethylimidazo[2,1-b][1,3,4]thiadiazol-6-yl)-5-methoxybenzo[d]thiazol-7-yl)oxy)methyl)thiazol-2-yl)-N,N-dimethylbenzamide], for which the negative logarithm of the IC50 (pIC50) was 5.92.

In the case of `COc1cc(OCc2csc(-c3ccc(C(=O)N4CC[C@@H](CO)C4)cc3)n2)c2sc(-c3cn4nc(C(C)(F)F)sc4n3)nc2c1` [Example 20, (R)-(4-(4-(((2-(2-(1,1-Difluoroethyl)imidazo[2,1-b][1,3,4]thiadiazol-6-yl)-5-methoxybenzo[d]thiazol-7-yl)oxy)methyl)thiazol-2-yl)phenyl)(3-(hydroxymethyl)pyrrolidin-1-yl)methanone], the pIC50 is 5.92. As for `CCc1nn2cc(-c3nc4cc(OC)cc(OCc5csc(-c6ccc(C(=O)N(C)[C@H]7CCOC7)cc6)n5)c4s3)nc2s1` [Example 34, (S)-4-(4-(((2-(2-Ethylimidazo[2,1-b][1,3,4]thiadiazol-6-yl)-5-methoxybenzo[d]thiazol-7-yl)oxy)methyl)thiazol-2-yl)-N-methyl-N-(tetrahydrofuran-3-yl)benzamide], the pIC50 is 5.89. With `COc1cc(OCc2csc(-c3ccc(C(=O)N4CCOC[C@@H]4CO)cc3)n2)c2sc(-c3cn4nc(C)sc4n3)nc2c1` [Example 11, (S)-(3-(Hydroxymethyl)morpholino)(4-(4-(((5-methoxy-2-(2-methylimidazo[2,1-b][1,3,4]thiadiazol-6-yl)benzo[d]thiazol-7-yl)oxy)methyl)thiazol-2-yl)phenyl)methanone], the pIC50 is 5.85. On to `COc1cc(OCc2csc(-c3ccc(C(=O)N(C)CC#N)cc3)n2)c2sc(-c3cn4nc(C)sc4n3)nc2c1` [Example 5, N—(Cyanomethyl)-4-(4-(((5-methoxy-2-(2-methylimidazo[2,1-b][1,3,4]thiadiazol-6-yl)benzo[d]thiazol-7-yl)oxy)methyl)thiazol-2-yl)-N-methylbenzamide], for which the pIC50 is 5.96.

As to `COc1cc(OCc2csc(-c3ccc(C(=O)N4CCC[C@H](O)C4)cc3)n2)c2sc(-c3cn4nc(C5CC5)sc4n3)nc2c1` [Example 26, (S)-(4-(4-(((2-(2-Cyclopropylimidazo[2,1-b][1,3,4]thiadiazol-6-yl)-5-methoxybenzo[d]thiazol-7-yl)oxy)methyl)thiazol-2-yl)phenyl)(3-hydroxypiperidin-1-yl)methanone], the pIC50 was 5.04. As to `COc1cc(OCc2csc(-c3ccc(C(=O)N(C)[C@H]4CCOC4)cc3)n2)c2sc(-c3cn4nc(C)sc4n3)nc2c1` [Example 3, (S)-4-(4-(((5-methoxy-2-(2-methylimidazo[2,1-b][1,3,4]thiadiazol-6-yl)benzo[d]thiazol-7-yl)oxy)methyl)thiazol-2-yl)-N-methyl-N-(tetrahydrofuran-3-yl)benzamide], the pIC50 is 5.44.

Take `COc1cc(OCc2csc(-c3ccc(C(=O)N(C)C)cc3)n2)c2sc(-c3cn4nc(C)sc4n3)nc2c1` [Example 6, 4-(4-(((5-Methoxy-2-(2-methylimidazo[2,1-b][1,3,4]thiadiazol-6-yl)benzo[d]thiazol-7-yl)oxy)methyl)thiazol-2-yl)-N,N-dimethylbenzamide]: the pIC50 was 5.42. Consider `CCc1nn2cc(-c3nc4cc(OC)cc(OCc5csc(-c6ccc(C(=O)NCC(C)(C)CO)cc6)n5)c4s3)nc2s1` [Example 32, 4-(4-(((2-(2-Ethylimidazo[2,1-b][1,3,4]thiadiazol-6-yl)-5-methoxybenzo[d]thiazol-7-yl)oxy)methyl)thiazol-2-yl)-N-(3-hydroxy-2,2-dimethylpropyl)benzamide], for which the pIC50 was 5.85. On to `COc1cc(OCc2csc(-c3ccc(C(=O)N4CCOC[C@H]4CO)cc3)n2)c2sc(-c3cn4nc(C(C)(F)F)sc4n3)nc2c1` [Example 21, (R)-(4-(4-(((2-(2-(1,1-Difluoroethyl)imidazo[2,1-b][1,3,4]thiadiazol-6-yl)-5-methoxybenzo[d]thiazol-7-yl)oxy)methyl)thiazol-2-yl)phenyl)(3-(hydroxymethyl)morpholino)methanone], for which the pIC50 was 6.04. Consider `COc1cc(OCc2csc(-c3ccc(C(=O)N(CCO)C(C)(C)C)cc3)n2)c2sc(-c3cn4nc(C)sc4n3)nc2c1` [Example 7], for which the pIC50 was 4.52. Consider `COc1cc(OCc2csc(-c3ccc(C(=O)N(C)CC#N)cc3)n2)c2sc(-c3cn4nc(C5CC5)sc4n3)nc2c1` [Example 27, N-(Cyanomethyl)-4-(4-(((2-(2-cyclopropylimidazo[2,1-b][1,3,4]thiadiazol-6-yl)-5-methoxybenzo[d]thiazol-7-yl)oxy)methyl)thiazol-2-yl)-N-methylbenzamide], for which the pIC50 is 5.92. As for `COc1cc(OCc2csc(-c3ccc(C(=O)N4CC[C@@H](CO)C4)cc3)n2)c2sc(-c3cn4nc(C)sc4n3)nc2c1` [Example 8], the pIC50 is 5.74. Regarding `COc1cc(OCc2csc(-c3ccc(C(=O)N(CCO)C(C)(C)C)cc3)n2)c2sc(-c3cn4nc(C(C)(F)F)sc4n3)nc2c1` [Example 19, N-(tert-Butyl)-4-(4-(((2-(2-(1,1-difluoroethyl)imidazo[2,1-b][1,3,4]thiadiazol-6-yl)-5-methoxybenzo[d]thiazol-7-yl)oxy)methyl)thiazol-2-yl)-N-(2-hydroxyethyl)benzamide], the pIC50 is 4.09. Take `COc1cc(OCc2nc(-c3ccc(C(=O)N(C)C)cc3)sc2C)c2sc(-c3cn4nc(C)sc4n3)nc2c1` [Example 41, 4-(4-(((5-Methoxy-2-(2-methylimidazo[2,1-b][1,3,4]thiadiazol-6-yl)benzo[d]thiazol-7-yl)oxy)methyl)-5-methylthiazol-2-yl)-N,N-dimethylbenzamide]: the pIC50 was 5.77. The same measure, in the same setting: in the case of `CCc1nn2cc(-c3nc4cc(OC)cc(OCc5csc(-c6ccc(C(=O)N7CCC[C@H](O)C7)cc6)n5)c4s3)nc2s1` [Example 33, (S)-(4-(4-(((2-(2-Ethylimidazo[2,1-b][1,3,4]thiadiazol-6-yl)-5-methoxybenzo[d]thiazol-7-yl)oxy)methyl)thiazol-2-yl)phenyl)(3-hydroxypiperidin-1-yl)methanone] it was 5.44; in that of `COc1cc(OCc2csc(-c3ccc(C(=O)N(C)C4CCOCC4)cc3)n2)c2sc(-c3cn4nc(C(C)(F)F)sc4n3)nc2c1` [Example 22, 4-(4-(((2-(2-(1,1-Difluoroethyl)imidazo[2,1-b][1,3,4]thiadiazol-6-yl)-5-methoxybenzo[d]thiazol-7-yl)oxy)methyl)thiazol-2-yl)-N-methyl-N-(tetrahydro-2H-pyran-4-yl)benzamide], 6.12. On to `COc1cc(OCc2nc(-c3ccc(C(=O)N4CCC(CCO)CC4)cc3)sc2C)c2sc(-c3cn4nc(C)sc4n3)nc2c1` [Example 42, (4-(2-Hydroxyethyl)piperidin-1-yl)(4-(4-(((5-methoxy-2-(2-methylimidazo[2,1-b][1,3,4]thiadiazol-6-yl)benzo[d]thiazol-7-yl)oxy)methyl)-5-methylthiazol-2-yl)phenyl)methanone], for which the pIC50 is 5.96.
